This note sets out measurements from patent US20090275570A1, “SUBSTITUTED HETEROCYCLES AND THEIR USE AS CHK1, PDK1 AND PAK INHIBITORS” (ASTRAZENECA AB, priority 2005, published 2009).

Like-named read-outs stand apart in the source and are kept apart here.

Common to all, as to type: biochemical
One experiment has as its target T1, CHK1 kinase (Homo sapiens, UniProt O14757).
T1 construct: The kinase domain is expressed in baculovirus and purified by the GST tag; GST; made in house; host or cells: baculovirus system (insect cells implied)
T1 sequence (O14757 9-265 limits assumed): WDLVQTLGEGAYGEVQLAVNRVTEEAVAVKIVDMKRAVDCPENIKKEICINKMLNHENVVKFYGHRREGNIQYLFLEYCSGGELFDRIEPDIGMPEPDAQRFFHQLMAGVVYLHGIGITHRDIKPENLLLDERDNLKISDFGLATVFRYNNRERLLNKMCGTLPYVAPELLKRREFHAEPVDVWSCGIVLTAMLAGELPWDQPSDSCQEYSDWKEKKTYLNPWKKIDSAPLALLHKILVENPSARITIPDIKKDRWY
The experiment can be described thus: Checkpoint Kinase 1 Assay (SPA). The protocol:
Checkpoint Kinase 1 Assay: This in vitro assay measures the inhibition of CHK1 kinase by compounds. The kinase domain is expressed in baculovirus and purified by the GST tag. Purified protein and biotinylated peptide substrate (Cdc25C) is then used in a 384 well automated Scintillation Proximity Assay (SPA). Specifically, peptide, enzyme and reaction buffer are mixed and aliquoted into a 384 well plate containing dilution series of compounds and controls. Cold and hot ATP are then added to initiate the reaction. After 2 hours, a SPA bead slurry, […] and EDTA are added to stop the reaction and capture the biotinylated peptide. Plates are then counted on a Topcount. Data is analyzed and IC50s determined for individual compounds.

Another experiment has as its target T2, Pak1 (Homo sapiens, UniProt Q13153).
T2 construct: The full-length Pak1 protein is expressed in E. coli as a GST fusion; GST; made in house; host or cells: E. coli
The experiment can be described thus: In Vitro Pak1 Enzyme Assay (SPA). Conditions: read-out: IC50 value in the Pak 1 enzyme assay. On the procedure: The assay used Scintillation Proximity Assay (SPA) technology (Antonsson et al., Analytical Biochemistry, 1999, 267: 294-299) to determine the ability of test compounds to inhibit phosphorylation by recombinant Pak1. The full-length Pak1 protein is expressed in E. coli as a GST fusion and purified using the GST tag using standard purification techniques.
(§1) Test compounds were prepared as 10 mM stock solutions in DMSO and diluted into water as required to give a range of final assay concentrations. Aliquots (5 μl) of each compound dilution were placed into a well of a Matrix 384-well flat bottom white polystyrene plate (Catalogue No. 4316). […]
Each reaction was stopped and the biotinylated peptide captured by the addition of 30 […] of a mixture of Streptavidin coated PVT SPA bead slurry (Amersham Biosciences, Catalogue No. RPQO205; 250 μg/well) in 50 mM Tris-HCl pH7.5 buffer containing 0.05% sodium azide followed by the addition of 30 μl of 2.83M Caesium chloride (final assay concentration of 1M). Plates are then left for 2 hours on the bench before being counted on a TopCount. […]
Pak1 enzyme inhibition for a given test compound was expressed as an IC50 value.

The target in a further experiment is T3, Pak4 (Homo sapiens, UniProt O96013).
T3 construct: The kinase domain of Pak4 (amino acids 291 to 591) is expressed in E. coli as a GST fusion; GST; made in house; host or cells: E. coli
The experiment can be described thus: In Vitro Pak4 Enzyme Assay (SPA). The conditions noted are these: read-out: IC50 value in the Pak 4 enzyme assay. The protocol:
The assay used Scintillation Proximity Assay (SPA) technology (Antonsson et al., Analytical Biochemistry, 1999, 267: 294-299) to determine the ability of test compounds to inhibit phosphorylation by recombinant Pak4. The kinase domain of Pak4 (amino acids 291 to 591) is expressed in E. coli as a GST fusion and purified using the GST tag using standard purification techniques.
as §1
Each reaction was stopped and the biotinylated peptide captured by the addition of 30 μl of a mixture of Streptavidin coated PVT SPA bead slurry (Amersham Biosciences, Catalogue No. RPQ0205; 250 μg/well) in 50 mM Tris-HCl pH7.5 buffer containing 0.05% sodium azide followed by the addition of 30 μl of 2.83M Caesium chloride (final assay concentration of 1M). Plates are then left for 2 hours on the bench before being counted on a TopCount. […]
Pak4 enzyme inhibition for a given test compound was expressed as an IC50 value. […]

The target of the next experiment is T4, PDK1 (Homo sapiens, UniProt O15530).
T4 construct: 6His; made in house; host or cells: insect cells
T4 sequence (O15530 1-556): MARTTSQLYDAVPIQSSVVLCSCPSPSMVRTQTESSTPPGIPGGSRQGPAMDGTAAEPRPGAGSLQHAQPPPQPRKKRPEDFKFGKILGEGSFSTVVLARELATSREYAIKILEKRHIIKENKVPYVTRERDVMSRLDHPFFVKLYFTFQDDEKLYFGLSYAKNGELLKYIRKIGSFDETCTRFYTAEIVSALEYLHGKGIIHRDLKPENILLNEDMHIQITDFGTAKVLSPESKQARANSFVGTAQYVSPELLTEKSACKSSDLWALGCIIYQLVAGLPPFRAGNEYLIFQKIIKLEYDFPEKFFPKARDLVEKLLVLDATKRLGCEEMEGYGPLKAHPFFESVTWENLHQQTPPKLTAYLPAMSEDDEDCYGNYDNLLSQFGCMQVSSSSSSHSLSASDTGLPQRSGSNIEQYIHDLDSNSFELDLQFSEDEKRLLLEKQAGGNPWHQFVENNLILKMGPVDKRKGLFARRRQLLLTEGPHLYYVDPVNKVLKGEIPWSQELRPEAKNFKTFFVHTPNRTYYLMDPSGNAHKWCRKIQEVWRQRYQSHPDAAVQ
The experiment can be described thus: PDK1 Enzyme Assay (Alphascreen). The protocol:
The assay utilised Alphascreen technology (Ullman, E F, et al. Proc. Natl. Acad. Sci. USA, Vol. 91, pp. 5426-5430, 1994) to measure the ability of compounds to inhibit PDK1 enzyme activity. 6H is tagged PDK1 enzyme was expressed in insect cells and purified using NiNTA beads and conventional protein purification methodology.
Test compounds were prepared as 10 mM stock solutions in DMSO and diluted into water as required to give a range of final assay concentrations. 2 μl aliquots of compounds were dispensed into Greiner Bio-One low volume 384 well plates (Catalogue no. 784075). For the activity assay, to each well was added 5 μl of a mixture of 48 nM native peptide (Biotin-Ahx-[…]NH2, Bachem UK Ltd) and 12 μM adenosine triphosphate (ATP) in reaction buffer comprising Tris-HCl pH7.4 (60 mM), magnesium acetate (12 mM), EGTA (120 μM), DTT (1.2 mM) and bovine serum albumin (0.12 mg/ml). […]
Each reaction was stopped by addition of 5 μl of a solution containing Tris-HCl pH7.4 (50 mM), bovine serum albumin (1 mg/ml), EDTA (90 mM), anti-phospho Akt T308 antibody, R&D Systems, Catalogue no. […] Plates were then sealed and incubated overnight in low light conditions before being read on an Envision plate reader (Perkin Elmer). […]

T3 sequence (O96013 291-591): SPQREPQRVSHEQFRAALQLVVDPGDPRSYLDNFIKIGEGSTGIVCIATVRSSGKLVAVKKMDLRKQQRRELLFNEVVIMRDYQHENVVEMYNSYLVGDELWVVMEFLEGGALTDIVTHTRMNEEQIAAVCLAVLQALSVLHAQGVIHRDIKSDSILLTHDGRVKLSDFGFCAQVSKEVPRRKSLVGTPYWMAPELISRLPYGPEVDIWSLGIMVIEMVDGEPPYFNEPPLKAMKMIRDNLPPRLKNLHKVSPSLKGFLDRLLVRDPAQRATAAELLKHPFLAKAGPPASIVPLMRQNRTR
T2 sequence (Q13153 whole entry, the tested form may be a part): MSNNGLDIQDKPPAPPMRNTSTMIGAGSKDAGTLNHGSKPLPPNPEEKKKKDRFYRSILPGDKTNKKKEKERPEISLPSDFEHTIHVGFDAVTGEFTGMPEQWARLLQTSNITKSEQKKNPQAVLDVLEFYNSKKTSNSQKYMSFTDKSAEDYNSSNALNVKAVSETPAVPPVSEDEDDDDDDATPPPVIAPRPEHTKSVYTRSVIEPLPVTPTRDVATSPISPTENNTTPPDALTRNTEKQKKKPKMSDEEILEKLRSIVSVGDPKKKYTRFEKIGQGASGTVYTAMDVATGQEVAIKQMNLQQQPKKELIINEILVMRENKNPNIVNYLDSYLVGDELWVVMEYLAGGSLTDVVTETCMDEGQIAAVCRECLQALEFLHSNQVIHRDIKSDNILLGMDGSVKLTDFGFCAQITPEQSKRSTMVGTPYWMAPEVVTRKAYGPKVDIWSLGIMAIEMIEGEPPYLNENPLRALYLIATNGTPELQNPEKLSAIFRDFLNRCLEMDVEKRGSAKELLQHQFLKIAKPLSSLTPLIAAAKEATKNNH

As for `Cc1cc2c(N[C@H]3CCCNC3)ncc(C(N)=O)c2s1` [Example 157, 2-methyl-4-[(3S)-piperidin-3-ylamino]thieno[3,2-c]pyridine-7-carboxamide], the IC50 at CHK1 kinase was 150 nM.

Take `NC(=O)c1cnc(N[C@H]2CCCNC2)c2cc(-c3cc(F)cc(F)c3)sc12` [Example 10, 2-(3,5-difluorophenyl)-4-[(3S)-piperidin-3-ylamino]thieno[3,2-c]pyridine-7-carboxamide]: the half-maximal inhibitory concentration (IC50) came to 730 nM at Pak1, 140 nM on Pak4 and 350 nM against PDK1.

With `NCCNc1ncc(C(N)=O)c2sc(-c3ccccc3)cc12` [Example 16, 4-[(2-aminoethyl)amino]-2-phenylthieno[3,2-c]pyridine-7-carboxamide], at CHK1 kinase (read-out: IC50 value in the Checkpoint Kinase 1 assay), the concentration for half-maximal inhibition (IC50) was 550 nM.

Regarding `NC(=O)c1cnc(N[C@H]2CCCNC2)c2cc(-c3ccc(Cl)cc3)sc12` [Example 14, 2-(4-chlorophenyl)-4-[(3S)-piperidin-3-ylamino]thieno[3,2-c]pyridine-7-carboxamide], the IC50 at Pak1 turned out to be 600 nM; on Pak4 it was 100 nM; on PDK1, 160 nM.
